One assay is filed under the species Rattus norvegicus. Nature of the assay: Transactivation activity of glutamine synthase in rat skeletal muscle cells relative to Dexamethasone. In kind it is cell-based.
Assay [1] addresses T1, Interstitial collagenase (Homo sapiens) (UniProt P03956).
T1 sequence (whole entry): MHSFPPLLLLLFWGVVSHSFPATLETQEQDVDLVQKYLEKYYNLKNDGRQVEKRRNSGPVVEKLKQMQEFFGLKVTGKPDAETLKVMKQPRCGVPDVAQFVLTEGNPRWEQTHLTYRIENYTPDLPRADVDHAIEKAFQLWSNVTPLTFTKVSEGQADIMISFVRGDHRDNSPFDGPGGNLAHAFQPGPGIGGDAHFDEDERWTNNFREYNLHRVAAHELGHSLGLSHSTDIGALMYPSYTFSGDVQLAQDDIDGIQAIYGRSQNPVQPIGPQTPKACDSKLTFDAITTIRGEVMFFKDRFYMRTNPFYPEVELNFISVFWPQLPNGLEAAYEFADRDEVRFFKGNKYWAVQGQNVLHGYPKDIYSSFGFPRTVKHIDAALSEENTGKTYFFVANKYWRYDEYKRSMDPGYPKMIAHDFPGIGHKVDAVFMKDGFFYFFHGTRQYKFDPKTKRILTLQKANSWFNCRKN
Nature of the assay: Inhibition of glucocorticoid-mediated human MMP1 expression in PMA stimulated A549 cells assessed as MMP1 protein level by ELISA relative to Dexamethasone. The class given is cell-based. Further details: scale not given: the % may be the effect or the level left. A general note: ELISA stands for enzyme-linked immunosorbent assay.

For a further assay, the target named is T2, Glucocorticoid receptor (Homo sapiens, UniProt P04150).
T2 sequence (P04150 whole entry): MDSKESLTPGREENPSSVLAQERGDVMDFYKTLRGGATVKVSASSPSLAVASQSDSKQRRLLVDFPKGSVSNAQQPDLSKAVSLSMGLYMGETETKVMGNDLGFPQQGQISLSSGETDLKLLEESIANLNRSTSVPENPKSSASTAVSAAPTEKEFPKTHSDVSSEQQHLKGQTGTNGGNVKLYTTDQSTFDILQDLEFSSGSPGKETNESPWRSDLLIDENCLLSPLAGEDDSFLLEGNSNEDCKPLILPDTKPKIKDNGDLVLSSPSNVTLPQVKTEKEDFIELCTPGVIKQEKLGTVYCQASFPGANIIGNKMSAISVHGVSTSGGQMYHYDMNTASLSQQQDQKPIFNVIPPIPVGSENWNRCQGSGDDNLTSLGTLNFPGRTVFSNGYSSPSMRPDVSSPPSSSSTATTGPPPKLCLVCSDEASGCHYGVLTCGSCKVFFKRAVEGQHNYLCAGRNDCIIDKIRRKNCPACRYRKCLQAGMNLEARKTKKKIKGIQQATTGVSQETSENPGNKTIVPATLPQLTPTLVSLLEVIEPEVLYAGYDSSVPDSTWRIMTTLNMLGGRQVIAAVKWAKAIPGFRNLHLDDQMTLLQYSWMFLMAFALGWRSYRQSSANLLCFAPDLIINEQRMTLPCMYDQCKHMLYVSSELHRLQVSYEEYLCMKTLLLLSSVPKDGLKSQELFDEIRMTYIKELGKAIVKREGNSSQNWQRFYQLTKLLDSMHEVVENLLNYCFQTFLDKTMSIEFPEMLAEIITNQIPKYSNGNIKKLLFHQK

Assay [2] is described as follows: Transactivation activity of glutamine synthase in rat skeletal muscle cells. The class given is cell-based.
In another assay the target is T3, Progesterone receptor (Homo sapiens, UniProt P06401).
T3 sequence (P06401 whole entry): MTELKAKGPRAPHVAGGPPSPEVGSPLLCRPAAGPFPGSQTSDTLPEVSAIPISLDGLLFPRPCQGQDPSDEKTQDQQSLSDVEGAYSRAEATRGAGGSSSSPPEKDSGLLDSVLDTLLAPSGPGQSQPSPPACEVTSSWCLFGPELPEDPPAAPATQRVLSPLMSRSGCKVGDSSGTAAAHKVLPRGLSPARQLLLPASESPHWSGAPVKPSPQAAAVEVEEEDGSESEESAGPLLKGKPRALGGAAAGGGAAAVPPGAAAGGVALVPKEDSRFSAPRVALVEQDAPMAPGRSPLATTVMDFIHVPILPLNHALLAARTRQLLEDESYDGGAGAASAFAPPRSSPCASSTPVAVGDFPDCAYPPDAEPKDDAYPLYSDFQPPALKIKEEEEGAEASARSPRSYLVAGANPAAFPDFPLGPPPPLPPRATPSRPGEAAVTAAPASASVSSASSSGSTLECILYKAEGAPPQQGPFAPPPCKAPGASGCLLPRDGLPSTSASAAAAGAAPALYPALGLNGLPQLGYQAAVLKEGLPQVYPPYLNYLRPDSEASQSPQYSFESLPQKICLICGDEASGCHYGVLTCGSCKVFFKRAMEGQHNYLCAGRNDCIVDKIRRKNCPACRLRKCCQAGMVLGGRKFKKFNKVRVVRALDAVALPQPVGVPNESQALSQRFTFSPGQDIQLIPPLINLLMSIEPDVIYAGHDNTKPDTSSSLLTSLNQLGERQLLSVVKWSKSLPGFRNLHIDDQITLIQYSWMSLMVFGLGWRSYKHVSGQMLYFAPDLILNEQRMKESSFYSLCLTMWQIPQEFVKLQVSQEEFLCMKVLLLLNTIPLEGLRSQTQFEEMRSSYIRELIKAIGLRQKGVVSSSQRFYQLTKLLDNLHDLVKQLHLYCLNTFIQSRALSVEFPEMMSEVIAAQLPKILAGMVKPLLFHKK
Nature of the assay: Inhibition of human progesterone receptor.

From ChEMBL document CHEMBL1156642, “Discovery of betamethasone 17alpha-carbamates as dissociated glucocorticoid receptor modulators in the rat” (Bioorg Med Chem, 2008) come the findings set out here.

Where only a bound is given, the exact number is not on record here.

Description for Glucocorticoid receptor: Inhibition of human glucocorticoid receptor

In general, IC50 refers to the concentration at which inhibition is half-maximal. What is called EC50 is the concentration giving half of the maximal effect. Take `COC(=O)[C@H](C)NC(=O)O[C@]1(C(=O)CO)[C@@H](C)C[C@H]2[C@@H]3CCC4=CC(=O)C=C[C@]4(C)[C@@]3(F)[C@@H](O)C[C@@]21C`: the Activity worked out at 103% in the assay listed under Rattus norvegicus and 107% in assay [1]. Inhibition against Glucocorticoid receptor was half-maximal at 28.6 nM (IC50). The molecule further came in with an EC50 in assay [2] of 47 nM.

Consider `C[C@H]1C[C@H]2[C@@H]3CCC4=CC(=O)C=C[C@]4(C)[C@@]3(F)[C@@H](O)C[C@]2(C)[C@@]1(OC(=O)NC1CCCCC1)C(=O)CO`, for which the Activity in the assay filed under Rattus norvegicus was determined as 24.7%; in assay [1], 82%. The molecule further yielded an IC50 at Progesterone receptor of 120 nM.

As for `C[C@@H](NC(=O)O[C@]1(C(=O)CO)[C@@H](C)C[C@H]2[C@@H]3CCC4=CC(=O)C=C[C@]4(C)[C@@]3(F)[C@@H](O)C[C@@]21C)c1ccccc1`, the Activity stood at 92% in the assay filed under Rattus norvegicus and 87.5% in assay [1]. The same molecule displayed an IC50 on Glucocorticoid receptor of 5.2 nM. In assay [2], this molecule displayed a concentration for a half-maximal effect (EC50) of 1.6 nM.

For `C[C@H]1C[C@H]2[C@@H]3CCC4=CC(=O)C=C[C@]4(C)[C@@]3(F)[C@@H](O)C[C@]2(C)[C@@]1(OC(=O)NC(C)(C)C)C(=O)CO`, the Activity is 64% in the assay filed under Rattus norvegicus and 94% in assay [1]. Besides, it took 2.4 nM to reach half-maximal inhibition on Glucocorticoid receptor (IC50). It took 0.37 nM to reach a half-maximal effect in assay [2] (EC50).

`CCC(C)NC(=O)O[C@]1(C(=O)CO)[C@@H](C)C[C@H]2[C@@H]3CCC4=CC(=O)C=C[C@]4(C)[C@@]3(F)[C@@H](O)C[C@@]21C` (some centres not stated): the Activity is 54% in the assay filed under Rattus norvegicus and 97.5% in assay [1]. On Glucocorticoid receptor, this molecule registered an IC50 of 0.5 nM. Moreover, the EC50 in assay [2] came to 0.3 nM.

For `C[C@H]1C[C@H]2[C@@H]3CCC4=CC(=O)C=C[C@]4(C)[C@@]3(F)[C@@H](O)C[C@]2(C)[C@@]1(OC(=O)NC(C)(C)CC(C)(C)C)C(=O)CO`, the Activity was 50% in the assay filed under Rattus norvegicus and 80.3% in assay [1]. The IC50 at Progesterone receptor is over 1000 nM; on Glucocorticoid receptor, 5.7 nM. This molecule returned an EC50 in assay [2] of 223 nM.

In the case of `C[C@H]1C[C@H]2[C@@H]3CCC4=CC(=O)C=C[C@]4(C)[C@@]3(F)[C@@H](O)C[C@]2(C)[C@@]1(OC(=O)NC12CC3CC(CC(C3)C1)C2)C(=O)CO`, in assay [1], the Activity was determined as 84.1%. Further, 5.8 nM corresponded to half-maximal inhibition at Glucocorticoid receptor (IC50).

In the case of `CCC(C)(C)NC(=O)O[C@]1(C(=O)CO)[C@@H](C)C[C@H]2[C@@H]3CCC4=CC(=O)C=C[C@]4(C)[C@@]3(F)[C@@H](O)C[C@@]21C`, the Activity in the assay filed under Rattus norvegicus is 35%; in assay [1] it was 65.9%. The midpoint of inhibition on Glucocorticoid receptor, the IC50, lay at 55.1 nM.

Turning to `C[C@H]1C[C@H]2[C@@H]3CCC4=CC(=O)C=C[C@]4(C)[C@@]3(F)[C@@H](O)C[C@]2(C)[C@@]1(OC(=O)NCC(C)(C)C)C(=O)CO`, the Activity in assay [1] worked out at 44.7%. The same molecule displayed an IC50 against Glucocorticoid receptor of 352 nM.

On to `CC(C)NC(=O)O[C@]1(C(=O)CO)[C@@H](C)C[C@H]2[C@@H]3CCC4=CC(=O)C=C[C@]4(C)[C@@]3(F)[C@@H](O)C[C@@]21C`, for which the results for the Activity (in the assay listed under Rattus norvegicus; in assay [1]) were 26% and 105%, respectively. The molecule further showed an IC50 against Glucocorticoid receptor of 21.5 nM.

As to `CCCCCNC(=O)O[C@]1(C(=O)CO)[C@@H](C)C[C@H]2[C@@H]3CCC4=CC(=O)C=C[C@]4(C)[C@@]3(F)[C@@H](O)C[C@@]21C`, the Activity in the assay filed under Rattus norvegicus is 60.3%; in assay [1], 97.5%. For the same molecule, inhibition on Glucocorticoid receptor was half-maximal at 2.1 nM (IC50). Further, in assay [2], the EC50 was 0.4 nM.

Regarding `C[C@H](NC(=O)O[C@]1(C(=O)CO)[C@@H](C)C[C@H]2[C@@H]3CCC4=CC(=O)C=C[C@]4(C)[C@@]3(F)[C@@H](O)C[C@@]21C)c1ccccc1`, the Activity came to 49% in the assay listed under Rattus norvegicus and 93% in assay [1]. Besides, the IC50 is 176 nM against Progesterone receptor and 1.3 nM against Glucocorticoid receptor. Moreover, in assay [2], it took 0.6 nM to reach a half-maximal effect (EC50).

Turning to `C=CCNC(=O)O[C@]1(C(=O)CO)[C@@H](C)C[C@H]2[C@@H]3CCC4=CC(=O)C=C[C@]4(C)[C@@]3(F)[C@@H](O)C[C@@]21C`, the Activity in the assay filed under Rattus norvegicus came to 16%; in assay [1], 106%. Moreover, the IC50 is over 1000 nM against Progesterone receptor and 17.4 nM at Glucocorticoid receptor.

In the case of `C[C@H]1C[C@H]2[C@@H]3CCC4=CC(=O)C=C[C@]4(C)[C@@]3(F)[C@@H](O)C[C@]2(C)[C@@]1(OC(=O)NCCC(C)(C)C)C(=O)CO`, the Activity in the assay listed under Rattus norvegicus was determined as 61.8%; in assay [1], 56.3%. Besides, on Glucocorticoid receptor, it took 12.3 nM to reach half-maximal inhibition (IC50). The response in assay [2] was half-maximal at 576 nM (EC50).

In the case of `C[C@H]1C[C@H]2[C@@H]3CCC4=CC(=O)C=C[C@]4(C)[C@@]3(F)[C@@H](O)C[C@]2(C)[C@@]1(OC(=O)NC1CCCC1)C(=O)CO`, the values for the Activity (in the assay filed under Rattus norvegicus; in assay [1]) were 23% and 76.1%, respectively. The molecule further had an IC50 against Glucocorticoid receptor of 3.8 nM.

On to `CCCCNC(=O)O[C@]1(C(=O)CO)[C@@H](C)C[C@H]2[C@@H]3CCC4=CC(=O)C=C[C@]4(C)[C@@]3(F)[C@@H](O)C[C@@]21C`, for which the Activity is 31.3% in the assay listed under Rattus norvegicus and 98% in assay [1]. This molecule also yielded an IC50 against Glucocorticoid receptor of 2.8 nM.
